# Counter-ions that a name gives are not always drawn. Like-named read-outs stand apart in the source and are kept apart here.
# Key:
# [1] = test system: mTORC1 and mTORC2 pathways; assay: Screening of GSK3 inhibitors: phospho-S6 / phospho-AKT staining (activation of mTORC1 and mTORC2 pathways); type: cell-based, human; details: for frequency of pS6+pAKT+ cells / activation of mTORC pathway: FIG. 12A, in words; for Fold change in pS6+pAKT+cells (relative to DMSO): 12 hs at optimal dose, washout, 48 hs anti-CD3/anti-CD28, symbols not defined
# Protocol: (§1) FIG. 12. Screening molecules for reprogramming human CD8^+ T cells Total CD8^+ T cells were purified and treated for 12 hs with titrated doses of GSK3 inhibitors or DMSO vehicle control. After drug washout, cells were stimulated for 48 hs with plate-bound anti-CD3/anti-CD28 antibodies (at 1 mg/mL), followed by flow cytometry analyses. A. Upon stimulation, intracellular cytokine and phospho-protein staining was performed, the latter for the detection of phospho-S6 and phospho-AKT proteins (indicative of activation of mTORC1 and mTORC2 pathways, respectively). The fold change in the frequency of IFN-γ^+TNF-α^+ and pS6^+pAKT^+ cells induced by the treatment with each GSK3 inhibitor, relative to DMSO control, was analyzed. […] B. Fold change in the expression of the indicated markers and memory phenotypes induced by anti-CD3/anti-CD28 antibody stimulation relative to unstimulated cells (at least 3 donors per condition). TCM: T central memory; TEM: T effector memory; TTM: T transitional memory; TTE: T terminal effector; TSCM: T stem cell memory.
# (§2) For reprogramming of CD8^+ T cells followed by polyclonal stimulation, cells were isolated by negative magnetic bead sorting (Stemcell Technologies). For reprogramming of CD8^+ T cells followed by antigen-specific stimulation, PBMC and magnetically separated CD8^+ T cells and non-CD8^+ T cells were used (REAlease® CD8 MicroBead Kit; Miltenyi Biotech). Then, CD8^+ T cells were treated with a GSK3 inhibitor (6-Bromoindirubin-3′-oxime; BIO; Sigma-Aldrich), at 3 μM, or an equivalent concentration of dimethyl sulfoxide (DMSO) vehicle control, in complete medium, for 12 hs at 37° C., 5% CO2. Non-CD8 cells were left resting during this time in complete medium. CD8^+ T cells were washed with complete medium and stimulated with the peptide pool in presence of non-CD8 T cells.
# (§3) In some experiments, cells were culture in RPMI medium without glucose (MP Biomedicals). CD8^+ T cell proliferation was evaluated by CFSE dilution (at 1 μM, Thermo Fisher Scientific). In additional experiments, reprogrammed CD8^+ T cells were stimulated with IL-7 or IL-15 (both at 10 ng/mL; R&D) and cultured for 6 days. In all the cases, cells were cultured at a density of 2×10^6 cells/mL.
# (§4) After cultures, cells were stained with the LIVE/DEAD Fixable Aqua Dead Cell Stain kit (Thermo Fisher Scientific), with anti-CD3 Alexa Fluor 700 or APC efluor 780 and anti-CD8 PE Texas Red antibodies, accordingly. […] In some experiments, cells were stained with APC-conjugated dextramers (Immudex), incubated for 15 minutes at room temperature. Additional surface staining panels included anti-HLA-DR Superbright 780, anti-CD38 Superbright 600, anti-PD-1 BV421, anti-LAG-3 APC efluor 780, anti-TIM3 PE Cy7, and anti-TIGIT BV786 antibodies, or anti-CD122 PE and anti-CD215 FITC antibodies. The BD Transcription Factor Buffer Set kit (BD Biosciences) was used for cell fixation and permeabilization. […] Cell acquisition was performed using LSR II or ARIA III flow cytometers (both from BD Biosciences), and data were analyzed with FlowJo v.10 software (BD Biosciences).
# (§5) The inventors explored GSK3 inhibitors to expand the array of molecules that could be used for CD8^+ T cell reprogramming. They implemented a screening approach that combined the evaluation of cytokine polyfunctionality of CD8^+ T cells (IFN-γ+TNFα+) vs the activation of mTORC1 and mTORC2 pathways (pS6+pAKT+) upon treatment with the GSK3 inhibitors and subsequent polyclonal stimulation.
# human CD8+ T cells [2] = assay: Screening of GSK3 inhibitors: cytokine polyfunctionality (IFN-γ+TNF-α+) of CD8+ T cells after anti-CD3/anti-CD28 stimulation; type: cell-based; details: for Fold change in IFN-γ+ TNF-a+cells (relative to DMSO): 12 hs at optimal dose, washout, 48 hs anti-CD3/anti-CD28, symbols not defined; for IFN-γ+TNF-α+ cells (polyfunctionality) relative to vehicle control: FIG. 12A, in words
# Protocol: as §1, §2, §3, §4, §5
# GSK3 = GSK3 inhibitor, review Front. Mol. Neurosci. 2011; cited from earlier work
# human CD8+ T cells [3] = assay: Screening of GSK3 inhibitors: markers and memory phenotypes by flow cytometry; type: cell-based
# Protocol: as §1, §2, §3, §4
# [4] = 12 hs at optimal dose, anti-CD3/anti-CD28 stimulation relative to unstimulated cells, symbols not defined
compound,measurement,setting,value
COc1ccc(CNC(=O)Nc2ncc([N+](=O)[O-])s2)cc1 [AR-A014418],frequency of pS6+pAKT+ cells / activation of mTORC pathway,[1],decreased
CN1CCN(S(=O)(=O)c2ccc(-c3cnc(N)c(C(=O)Nc4cccnc4)n3)cc2)CC1 [AZD 2858],Fold change in IFN-γ+ TNF-a+cells (relative to DMSO),human CD8+ T cells [2],+ +
same,Fold change in pS6+pAKT+cells (relative to DMSO),[1],+ +
O=C1Cc2c([nH]c3ccc([N+](=O)[O-])cc23)-c2ccccc2N1 [Alsterpaullone],Fold change in IFN-γ+ TNF-a+cells (relative to DMSO),human CD8+ T cells [2],+ +
same,IFN-γ+TNF-α+ cells (polyfunctionality) relative to vehicle control,human CD8+ T cells [2],increased
same,Fold change in % HLA+ CD38+,human CD8+ T cells [3]; [4],− −
same,Fold change in pS6+pAKT+cells (relative to DMSO),[1],+ +
same,frequency of pS6+pAKT+ cells / activation of mTORC pathway,[1],activation of mTORC pathway
"CC(=O)ON=C1C(=C2C(=O)Nc3cc(Br)ccc32)Nc2ccccc21 [Bio-acetoxime, 6-bromoindirubin-3′-acetoxime]",Fold change in IFN-γ+ TNF-a+cells (relative to DMSO),human CD8+ T cells [2],+ +
same,IFN-γ+TNF-α+ cells (polyfunctionality) relative to vehicle control,human CD8+ T cells [2],promoted
same,CD127+ T-bet− phenotype,"human CD8+ T cells [3]; FIG. 12B, in words",preserved
same,"acquisition of T-bet, HLA-DR and CD38, PD-1 and LAG-3","human CD8+ T cells [3]; FIG. 12B, in words",restrained
same,phenotype / profile promoted in CD8+ T cells,"human CD8+ T cells [3]; FIG. 12B, in words",promoted a less-differentiated phenotype
same,frequency of pS6+pAKT+ cells / activation of mTORC pathway,[1],lower frequency
OCCCNc1cc(-c2ccnc(Nc3cccc(Cl)c3)n2)ccn1 [CGP 60474],Fold change in % HLA+ CD38+,human CD8+ T cells [3]; [4],− −
NC1=N[C@H]2c3c([nH]c(Br)c3Br)C(=O)N3CCC[C@]23N1 [Dibromocantharelline],IC50,GSK3,3000 nM
CN1CC[C@H](c2c(O)cc(O)c3c(=O)cc(-c4ccccc4Cl)oc23)[C@H](O)C1 [Flavopiridol hydrochloride hydrate],Fold change in % HLA+ CD38+,human CD8+ T cells [3]; [4],− −
same,Fold change in % Naive-TSCM,human CD8+ T cells [3]; [4],− −
same,Fold change in % TCM,human CD8+ T cells [3]; [4],− −
CN(C)CCCn1cc(C2=C(c3c[nH]c4ccccc34)C(=O)NC2=O)c2ccccc21 [GF 109203X],Fold change in % HLA+ CD38+,human CD8+ T cells [3]; [4],− −
O=C([O-])[O-].[Li+].[Li+] [Lithium carbonate],Fold change in % HLA+ CD38+,human CD8+ T cells [3]; [4],+ +
O[C@]12C=C(c3nccc4c3[nH]c3ccccc34)[C@@H]3CCN(CCCC/C=C\CC1)C[C@@]31C[C@@H]3/C=C\CCCCN3[C@H]12 [Manzamine A],IC50,GSK3,1500 nM
COc1ccc(-c2ocnc2C(=O)NCCCn2cncn2)cc1Cl [PF-04802367],Fold change in IFN-γ+ TNF-a+cells (relative to DMSO),human CD8+ T cells [2],+ +
same,IFN-γ+TNF-α+ cells (polyfunctionality) relative to vehicle control,human CD8+ T cells [2],increased
same,Fold change in pS6+pAKT+cells (relative to DMSO),[1],+ +
same,frequency of pS6+pAKT+ cells / activation of mTORC pathway,[1],activation of mTORC pathway
COc1ccc2c(c1)/C(=C/c1cnc[nH]1)C(=O)N2 [SU 9516],Fold change in IFN-γ+ TNF-a+cells (relative to DMSO),human CD8+ T cells [2],+ +
same,IFN-γ+TNF-α+ cells (polyfunctionality) relative to vehicle control,human CD8+ T cells [2],increased
same,Fold change in % HLA+ CD38+,human CD8+ T cells [3]; [4],+ +
same,Fold change in pS6+pAKT+cells (relative to DMSO),[1],+ +
same,frequency of pS6+pAKT+ cells / activation of mTORC pathway,[1],activation of mTORC pathway
CN[C@@H]1C[C@H]2O[C@@](C)([C@@H]1OC)n1c3ccccc3c3c4c(c5c6ccccc6n2c5c31)C(=O)NC4 [Staurosporine],Fold change in % CD127+ T-bet−,human CD8+ T cells [3],+
same,Fold change in % HLA+ CD38+,human CD8+ T cells [3],−
same,Fold change in % LAG3+ PD1+,human CD8+ T cells [3],−
same,Fold change in % TTM,human CD8+ T cells [3],+
O=c1sn(-c2cccc3ccccc23)c(=O)n1Cc1ccccc1 [Tideglusib (NP031112)],"frequencies of CD127− T-bet+ cells, and LAG-3+ PD-1+ cells","human CD8+ T cells [3]; FIG. 12B, in words",higher frequencies
same,phenotype / profile promoted in CD8+ T cells,"human CD8+ T cells [3]; FIG. 12B, in words",promoted an effector-like profile
[Zn+2] [Zinc],IC50,GSK3,15000 nM
